Reference: patent US10501805B2, “Methods for determining responsiveness to MEK/ERK inhibitors” (CROWN BIOSCIENCE, INC. (TAICANG), priority 2014, dated 2019)

Columns and labels:
Test in all cases: CellTiter-Glo cell viability, IC50 determination
Assay type in all cases: cell-based
NCI-H460 = settings: Homo sapiens, 72 h; NCI-H460 cell line; 3-day CTG assay; read-out: Absolute IC50
Summary of the method: (§1)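 Cells were seeded at 4×10^3 cells/well in medium with 10% FBS, left overnight at 37 °C and 5% CO2, then treated in triplicate on Day 0. On Day 3, viability was read by CellTiter-Glo luminescence. Absolute IC50 is where a sigmoidal nonlinear fit crosses 50% surviving rate.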

Hela = settings: Homo sapiens, 72 h; Hela cell line; 3-day CTG assay; read-out: Absolute IC50
Summary of the method: as §1

Colo205 = settings: Homo sapiens, COLO 205, 72 h; Colo205 cell line; 3-day CTG assay; read-out: Absolute IC50
Summary of the method: as §1

NCI-H1703 = settings: Homo sapiens, 72 h; NCI-H1703 cell line; 3-day CTG assay; read-out: Absolute IC50
Summary of the method: as §1

BT474 = settings: Homo sapiens, BT-474, 72 h; BT474 cell line; 3-day CTG assay; read-out: Absolute IC50
Summary of the method: as §1

IC50 (NCI-H460) [µM]	IC50 (Hela) [µM]	IC50 (Colo205) [nM]	IC50 (NCI-H1703) [µM]	IC50 (BT474) [µM]	Structure (SMILES)
5.53	5.38	40			O=C(Nc1ccc2[nH]nc(-c3ccncc3)c2c1)[C@@H]1CCN(CC(=O)N2CCN(c3ccc(-c4ncccn4)cc3)CC2)C1 [SCH772984, (R)-1-(2-oxo-2-(4-(4-(pyrimidin-2-yl)phenyl)piperazin-1-yl)ethyl)-N-(3-(pyridin-4-yl)-1H-indazol-5-yl)pyrrolidine-3-carboxamide]
			15	39	CC(=O)Nc1cccc(-n2c(=O)n(C3CC3)c(=O)c3c(Nc4ccc(I)cc4F)n(C)c(=O)c(C)c32)c1 [Trametinib, N-(3-{3-Cyclopropyl-5-[(2-fluoro-4-iodophenyl)amino]-6,8-dimethyl-2,4,7-trioxo-3,4,6,7-tetrahydropyrido[4,3-d]pyrimidin-1(2H)-yl}phenyl)acetamide]
